{
  "source": "patent US20090123564A1",
  "about": "“NOVEL COMPOSITIONS FOR HAIR DISORDERS AND PROCESS OF PREPARATION THEREOF” (priority 2006, published 2009)",
  "key": {"[1]": {"test_system": "androgen induced alopecia in hamsters", "assay": "Comparative efficacy of Vernonia anthelmintica extract against finasteride in androgen induced alopecia", "assay_type": "in vivo", "conditions": "for Mean ± SEM hair growth on a 0-3 scale: hamsters given testosterone i.m., treatments twice daily for 21 days, control 2.75 ± 0.171", "method": "Hamsters were divided into five different groups; one normal control group, three drug treated groups and one testosterone control group. On day 0 of the study, the fur over and around the flank organs was shaved with electric clippers. 95% alcohol (100 μl/site) was applied topically, twice daily to Testosterone Control and Normal control groups for 21 days. Saw Palmetto cream was applied topically (100 mg/site) twice daily for 21 days. 100 μl/site of 2% solution of Vernonia anthelmintica extract was applied topically, twice daily for 21 days. Finasteride (0.6 mg/kg) was administered orally twice daily for 21 days. Different groups except normal control group was administered testosterone (25 mg, i.m. in divided doses of 33.3 μl on day 0, 7, and 14) 1-hour post drug administration. At day 7, the fur around the flank organs was re-clipped. The amount of hair growth on the area surrounding the flank organs was visually graded at weekly intervals on a 0-3 scale (0=bald skin, 1=slight hair growth, 2=moderate hair growth and 3=full hair growth). The result is presented in table-2 and shown graphically in FIG. 3."}, "[2]": {"test_system": "dihydrotestosterone (DHT)", "conditions": "cited from earlier work"}, "leukenia cells P-388": {"test_system": "leukenia cells P-388", "conditions": "P-388 cells; cited from earlier work"}, "leukenia cells L-1210": {"test_system": "leukenia cells L-1210", "conditions": "L-1210 cells; cited from earlier work"}, "[3]": {"test_system": "human carcinoma nasopharynx cells", "conditions": "cited from earlier work"}, "[4]": {"test_system": "testosterone-induced alopecia in hamsters", "assay": "Vernonia anthelmintica extract against testosterone-induced alopecia in hamsters", "assay_type": "in vivo", "conditions": "day 22; visual grading on 0-3 scale (0=bald skin, 3=full hair growth); control=2.0", "method": "The efficacy of an extract of Vernonia anthelmintica (prepared according to Example-1 as stated hereinafter) against testosterone-induced alopecia in hamsters was studied. Male hamsters (n=6/group) weighing 90-120 g were procured from central animal house of Panacea Biotec Ltd. for study. Drugs used to induce alopecia was Testosterone i.m. depot injection (Testoviron); B.No. K1007, German Remedies Limited; each ml of which contains Testosterone Enanthate USP . . . 250 mg and Arachis oil IP . . . qs. The route of administration of the cream compositions was topical and the duration of study was 22 days. Hamsters were divided into two different groups; one Vernonia anthelmintica extract treated groups and another testosterone control group. On day 0 of study, the fur over and around the flank organs would be shaved with electric clippers.\nTestosterone was administered intramuscularly in divided doses, whereas Vernonia anthelmintica extract was applied topically twice daily for 21 days. On day 7, the fur around the flank organs was re-clipped. The amount of hair growth on the area surrounding the flank organs was visually graded on day 22 on a 0-3 scale (0=bald skin, 1=slight hair growth, 2=moderate hair growth and 3=full hair growth). Photographs of flank organ were taken on day 0 and 22. […]"}, "[5]": {"test_system": "testosterone-induced alopecia in hamsters", "assay": "Strength of Vernonia creams in testosterone-induced alopecia in hamsters", "assay_type": "in vivo", "conditions": "day 22; 0-3 scale; creams 100 mg topical bid for 21 days; normal control=3", "method": "Male hamsters (n=6/group) weighing 80-90 g procured from Central animal house of Panacea Biotec Ltd. were used. Drugs used to induce alopecia was Testosterone i.m. depot injection (Testoviron); B.No. K1007, German Remedies Limited; each ml of which contains Testosterone Enanthate USP . . . 250 mg and Arachis oil IP . . . qs. Four batches of Vernonia creams of different strengths were used for conducting the study namely B.No. 0629/010A (2% w/w), B.No. 0629/010C (0.2% w/w), B.No. 0629/014A (2% w/w) and B.No. 0629/014C (0.2% w/w) prepared according to Example-3 and Example 4 as stated hereinafter. The route of administration of the cream compositions was topical and the duration of study was 22 days. The fur over and around the flank organs of hamsters was shaved with electric clippers. Hamsters were divided into four different groups and allocated different treatments. The summary of different treatments is represented in Table-3.\nTestosterone was administered intramuscularly in divided doses, whereas Vernonia cream(s) (100 mg) was applied topically twice daily. All the treatments were given for 21 days. On day 7, the fur around the flank organs was re-clipped. […] The hair growth presented as mean was analyzed by one-way ANOVA followed by Student-Newman-Keuls multiple-range test. […]"}, "[6]": {"test_system": "testosterone-induced alopecia in hamsters", "assay": "Dose-response of Vernonia extract gel versus Vernonia freeze dried juice gel in testosterone-challenged hamsters", "assay_type": "in vivo", "conditions": "day 22; 0-3 scale; normal control=1.31±0.18", "method": "A further study was performed to study the dose-response of Vernonia extract gel and to compare its hair growth promoting effect against Vernonia freeze dried juice gel. The Vernonia extract gel was prepared by making an organic solvent extract of Vernonia and formulating it into a gel composition. The Vernonia freeze dried juice gel was prepared by expressing the juice from fresh leaves and flowering tops of Vernonia followed by freeze drying and formulating it into a gel composition. Male hamsters (n=6-8/group) weighing 80-90 g procured from the Central animal house of Panacea Biotec Ltd. were used. Drugs used to induce alopecia was Testosterone i.m. depot injection (Testoviron); B.No. K1007, German Remedies Limited; each ml of which contains Testosterone Enanthate USP . . . 250 mg and Arachis oil IP . . . qs. The following were used for conducting the study namely Vernonia extract gels B.No. 0629/030A (0.5% w/w), B.No. 0629/030B (1% w/w) and B.No. 0629/030C (2% w/w); and Vernonia freeze dried juice gels B.No. 0629/026A (1.25% w/w) and B.No. 0629/026B (2.5% w/w) (prepared according to Example-5 and Example-6 as stated hereinafter). […]\nTestosterone was administered intramuscularly in divided doses, whereas Vernonia cream (s) (100 mg) was applied topically twice daily. […] The hair growth presented as mean was analyzed by one-way ANOVA followed by Student-Newman-Keuls multiple-range test. […]"}},
  "data": [
    {"compound": "CC(C)(C)NC(=O)[C@H]1CC[C@H]2[C@@H]3CC[C@H]4NC(=O)C=C[C@]4(C)[C@H]3CC[C@]12C", "note": "[Finasteride]", "values": [
      {"measurement": "Reversal of testosterone induced-hair loss", "setting": "[1]; day 22", "result": "significantly reversed testosterone induced-hair loss"},
      {"measurement": "Mean ± SEM hair growth on a 0-3 scale", "setting": "[1]", "result": "2.20 ± 0.339"},
      {"measurement": "Decrease of DHT concentration in the scalp", "setting": "[2]; scalp", "result": "≤ 60", "unit": "%"},
      {"measurement": "Decrease of DHT concentration in the serum", "setting": "[2]; serum", "result": "up to 70%"}
    ]},
    {"compound": "vernolide", "values": [
      {"measurement": "IC50, antitumoral effects", "setting": "leukenia cells P-388", "result": 0.13, "unit": "µg/mL"},
      {"measurement": "IC50, antitumoral effects", "setting": "leukenia cells L-1210", "result": 0.11, "unit": "µg/mL"},
      {"measurement": "IC50, cytotoxic effects", "setting": "[3]", "result": 2.0, "unit": "µg/mL"}
    ]},
    {"compound": "vernodaline", "values": [
      {"measurement": "IC50, antitumoral effects", "setting": "leukenia cells P-388", "result": 0.11, "unit": "µg/mL"},
      {"measurement": "IC50, antitumoral effects", "setting": "leukenia cells L-1210", "result": 0.17, "unit": "µg/mL"}
    ]},
    {"compound": "CCCCCCC(=O)O[C@H]1CC[C@H]2[C@@H]3CCC4=CC(=O)CC[C@]4(C)[C@H]3CC[C@]12C", "note": "[Testosterone, Testosterone Enanthate]", "values": [
      {"measurement": "Hair growth score", "setting": "[4]", "result": "0.58±0.15"},
      {"measurement": "Mean ± SEM hair growth on a 0-3 scale", "setting": "[1]", "result": "1.33 ± 0.211"},
      {"measurement": "Hair growth score", "setting": "[5]", "result": 0.13},
      {"measurement": "Hair growth score", "setting": "[6]", "result": 0}
    ]}
  ]
}
